Measurements published in US20140301961A1, “COMPOUNDS WITH ANTI-AGING ACTIVITIES” (priority 2011, published 2014).

What was measured:
MMP1 = experiment: PMA inflammation induced MMP1 production in human dermal fibroblasts; format: cell-based; conditions: for inhibition of PMA inflammation induced MMP1 production: human dermal fibroblasts, PMA 10 nM, 24 h (FIG. 3); for MMP production: summary of FIGS. 2, 3 and 4 (UV skin explants and PMA dermal fibroblasts)
Protocol: (§1) MMP-inhibitory activity for compounds of the invention was also assessed on human dermal fibroblasts. Dermal fibroblasts were cultured in Dulbecco's Modified Eagle Medium (DMEM) (Invitrogen) with 10% EBS (ex. Invitrogen) and 1% Pencillin/Streptavidin (ex. Invitrogen). To induce inflammation in the cells, PMA (phorbol myristate acetate) (ex. Sigma) was used at a concentration of 10 nM. […] The cells were stimulated for 24 h and the culture supernatant was collected and stored at −20° C. until further analysis. Fluorokine MultiAnalyte Profiling (xMAP) using the BioPlex (ex. Biorad) dual laser flow-based sorting and detection analyzers manufactured by Luminex corporation (Luminex, Austin, Tex.) was employed to measure levels of MMP in conditioned media samples of stimulated dermal fibroblasts. The technology incorporated polystyrene microspheres dyed internally with differing ratios of two spectrally distinct fluorophores to create a family of different spectrally addressed bead sets. The bead utilized in this study was conjugated with a biotinylated capture antibody specific for a unique MMPs, The assay was performed without antecedent serum depletion. Results were compared with medium from cells treated with vehicle only (DMSO). The assays utilized a 96-well microplate format and were processed according to the manufacturer's protocol, including generation of a standard curve for each target prepared in background assay diluents. Values that fell within the linear range of the calibration assay were accepted. Samples were analyzed using the Bio-Plex suspension array system and Bio-Plex Manager software 4.0 (Bio-Rad Laboratories, Hercules, Calif.). Quantities were determined by comparison to standard curves obtained for the different MMP.

MMP3 = experiment: PMA inflammation induced MMP3 production in human dermal fibroblasts; format: cell-based; conditions: PMA 10 nM, 24 h (FIG. 4)
Protocol: as §1

GM-CSF [1] = experiment: GM-CSF production in PMA-stimulated human dermal fibroblasts; format: cell-based; conditions: PMA 10 nM (FIG. 8)
Protocol: Cell Cultures were Prepared According to Example 3.1
To induce inflammation in the cells PMA (phorbol myristate acetate) (ex. Sigma) was used at a concentration of 10 nM. […] The cells were stimulated for 24 h and the culture supernatant was collected and stored at −20° C. until further analysis.
Experimental method as outlined in Example 3.1 was modified in order to analyze GM-CSGF levels in human dermals fibroblasts stimulated with all-trans retinoic acid, retinol, arachidonic acid, β-aescin, and […] (ethyl ester) at a range of concentrations. Experiments were performed in duplicates.

GM-CSF [2] = experiment: UV-induced GM-CSF expression in skin explants; format: cell-based, human; conditions: topical 1% w/w solution in propylene glycol, 120 mJ/cm^2 UVA and UVB (FIG. 9)
Protocol: Full thickness skin from surgical waste material from breast reductions was collected. Subcutaneous fat was removed with a scalpel. 8 mm punch biopsies was taken from the skin and referred to as skin explants. Thereafter, the explants were put on Millipore cell culture inserts (12 mm in diameter). Inserts containing skin explants were put in 6-well plate (1 insert/well) and 1 mL of supplemented keratinocyte medium (Cascade Biologics) was added to each well to allow survival and nutrition of the explants. […] Supernatants were thereafter collected and analyzed for GM-CSF production.

Keratin 1/10 = Keratin 1/10 production in human normal keratinocytes; format: cell-based; conditions: for synthesis of Keratin 1/10: human normal keratinocytes (FIG. 15)
Protocol: Keratinocytes were cultured in commercially available keratinocyte medium M154 (Cascade Biologics/Invitrogen) # M154500 with a final calcium […]. Supplements were added meeting following final concentrations of growth factors; bovine pituitary extract (BPE), 0.2% v/v·bovine insulin, 5 μg/ml·hydrocortisone, 0.18 μg/ml·bovine transferrin, 5 μg/ml·human epidermal growth factor, 0.2 ng/ml.
Medium was changed every other day. Cells were grown to 80% confluence prior stimulation with compounds. Experiments were performed in 24-well plates. The cells were treated with individual compounds of the invention for 6 days. After 3 days the medium was refreshed. A source of calcium ions was used as a positive control. After 6 days tissue culture medium was stored in −20° C. until analysis.
Cells were cultured as described in Example 5.1. and the methodology described in Example 3.1 was adapted in order analyze keratin 1/10 production.

[3] = tested on: hydroxysteroid (17-beta) dehydrogenase 2 (HSD17B2); experiment: Affymetrix gene array on skin explants, HSD17B2; format: cell-based, human; conditions: topical, 24 hours
Excerpt: (§2) Subcutaneous fat from full thickness skin, obtained from surgical waste material from breast reduction procedures, was removed with a scalpel. Three healthy Caucasian female donors were used for this study. The female donors differed from those of the skin-treatment study outlined previously 8 mm punch biopsies were taken from the skin (and these biopsies are now referred to as skin explants). Skin explants were put on Milipore cell culture inserts (12 mm diameter). Inserts containing skin explants were put in 6-well plates (one insert/well) and 1 mL of supplemented keratinocyte medium (ex Cascade Biologics) was added to each well. A tretinoin-containing cream (Aberela® ex. Janssen): 0.05% tretinoin in the cream, was applied topically to each explant (5 μL/cm^2) using a positive displacement pipette. A placebo cream without tretinoin was used as a control. The skin explants were incubated with tretinoin for 24 hours at 37° C. in 5% CO2-humidified air.
(§3) RNA concentration was measured with ND-1000 spectrophotometer (ex. NanoDrop Technologies) and RNA quality was evaluated using the Agilent 2100 bioanalyzer system (ex. Agilent Technologies). 250 nanograms of total RNA from each skin or skin explant sample was used to prepare biotinylated fragmented cRNA according to the GeneChip® 3′IVT Express Kit Manual (PN702646 Rev 1, ex. Affymetrix Inc.). Affymetrix GeneChip® expression arrays (Human Genome U133 Plus 2.0) were hybridized for 16 hours in a 45° C. incubator, rotated at 60 rpm. According to the GeneChip Expression Wash, Stain and Scan Manual (PN 702731 Rev 2, ex. Affymetrix Inc.) the arrays were washed and stained using the Fluidics Station 450 and scanned using the GeneChip® Scanner 3000 7G.
(§4) Analysis of the gene expression data was carried out in the statistical computing language R (http://www.r-project.org) using packages available from the Bioconductor project (www.bioconductor.org). The raw data was normalized using the robust multi-array average (RMA) method. In order to search for differentially expressed genes between the X samples and the Y samples group an empirical Bayes moderated t-test was then applied using the ‘limma’ package.
(§5) Skin explants were obtained as detailed in Example 3.1.

[4] = tested on: arachidonate 5-lipoxygenase (ALOX5); experiment: Affymetrix gene array on skin explants, ALOX5; format: cell-based, human; conditions: topical, 24 hours
Excerpt: as §2, §3, §4, §5

Structure (SMILES) | inhibition of PMA inflammation induced MMP1 production (MMP1) | MMP production (MMP1) | inhibition of PMA inflammation induced MMP3 production (MMP3) | GM-CSF production (GM-CSF [1]) | UV-induced expression of GM-CSF (GM-CSF [2]) | production of Keratin 1/10 (Keratin 1/10; concentration not given) | HSD17B2 gene expression [3] [log 2−ratio] | ALOX5 gene expression [4] [log 2−ratio] | synthesis of Keratin 1/10 (Keratin 1/10; 150 microM) | synthesis of Keratin 1/10 (Keratin 1/10; 1.2 microM)
CC(=O)N[C@@H](CC(=O)O)C(=O)O [N-Acetyl aspartic acid, (2S)-2-Acetamidobutanedioic acid] | inhibition | ability to inhibit MMP production | inhibition | inhibition of GM-CSF production | suppression of UV-induced expression of GM-CSF | stimulate production of Keratin 1/10 | −1.46 | 0.15 |  | 
O=C1C[C@@H](c2ccc(O)cc2)Oc2cc(O)cc(O)c21 [Naringenin, (S)-2,3-Dihydro-5,7-dihydroxy-2-(4-hydroxyphenyl)-4H-1-benzopyran-4-one] | inhibition | ability to inhibit MMP production | inhibition | inhibition of GM-CSF production | suppression of UV-induced expression of GM-CSF |  | −0.83 | −0.69 | significant increase in the synthesis of Keratin 1/10 | 
C=C1C[C@]23C[C@@]1(O)CC[C@H]2[C@@]12C=C[C@H](O)[C@@](C)(C(=O)O1)[C@@H]2[C@@H]3C(=O)O [Gibberellic acid, (3S,3aS,4S,4aS,7S,9aR,9bR,12S)-7,12-dihydroxy-3-methyl-6-methylene-2-oxoperhydro-4a,7-methano-9b,3-propenoazuleno[1,2-b]furan-4-carboxylic acid] | inhibition | ability to inhibit MMP production | inhibition | inhibition of GM-CSF production | suppression of UV-induced expression of GM-CSF |  | −0.52 | −1.01 |  | significant increase in the synthesis of Keratin 1/10
